# Experiments:
# Homo sapiens [1] = species on record: Homo sapiens; details: 10 uM
# Homo sapiens [2] = species on record: Homo sapiens; details: 1 uM
SMILES,inhibition (Homo sapiens [1]) [%],inhibition (Homo sapiens [2]) [%]
O=C1C(c2cc(Cl)cc(Cl)c2)=C(c2cc[nH]n2)[C@]2(Cc3ccc(Br)cc3)CCCN12,30,
N#Cc1ccc(C[C@@]23CCCN2C(=O)C(c2cc(Cl)cc(Cl)c2)=C3O)cc1,,27

# Reference: ChEMBL document CHEMBL1148864, “Design of LFA-1 antagonists based on a 2,3-dihydro-1H-pyrrolizin-5(7aH)-one scaffold” (Bioorg Med Chem Lett, 2007)
